Assay [1] deals with Lepeophtheirus salmonis copepodids. In words: Infestation test with water dispersible tablets (Example 9). Type of assay: in vivo. The source says:
The purpose of this example was to assess the efficacy of the sea lice copepodits attachment inhibiting semiochemical (SCAIS), continuously released by water dispersible tablets, on the infestation behaviour of Lepeophtheirus salmonis copepodids in Atlantic salmon smolts (Salmo salar).
72 Atlantic salmon (Salmo salar) in the smolt stage having a weight around 90 g and of the origin SALMAR® (Daugstad 6392 Vikebukt, Norway) were used in this study. 2,400 copepodits used were from the species Lepeophtheirus salmonis origin Ilab® (Bergen, Norway).
Infestation tests were measured at 1 hour, 24 hours, 72 hours and 120 hours after application of the treatment. Blood tests were undertaken at 0 hours, 1 hour, 24 hours, 72 hours and 120 hours after treatment.
[…] were used and the study was conducted in two parallel groups of Atlantic salmon smolts, one group was treated with the sea lice copepodits attachment inhibiting semiochemical tablets of cis-9-hexdecenoic acid, which were placed in a string bag half way down where the water resides in the rearing tank and the other group was the control using only ethyl alcohol.
The infestation test, carried out at 1 hour, 24 hours, 72 hours and 120 hours after application of the treatment was performed in the following manner. […]

For the next assay, the system named is copepodits. Description: Infestation test of smolts with copepodits (Examples 4 to 6). The assay is classed as in vivo, Lepeophtheirus salmonis. How it is done: This test exposed young salmons (smolts weighting almost 70 grams) to a high density group of copepodits during 45 minutes in a testing device, which consisted of four 23 cm diameter tanks, with an outflow. […] Light can modify the behavior of the copepodits which have phototropism. Each tank received a smolt for 45 min (FIG. 6). The copepodits were first fished out of their rearing tank and counted on a stereomicroscope. Four infesting doses of copepodits, containing 60 copepodits each, were prepared for each run of the test. The smolts were placed in a tank containing the treatment solution (or the placebo), which concentration in active substance was 6 ppm. This bath lasted for 10 minutes. Then the smolts were placed in a tank where they were kept in 3 ppm of the same treatment (product or placebo) used in the previous bath to begin the testing. The purpose of this process was to prevent any dramatic decrease in the concentration of the active product on their skin. During the first 10 minutes, the outflow was open and the tent was closed. At that moment each tank was refilled to reach the initial volume of oxygenated liquid (refilled with the same solution, product or placebo). The outflow was then closed for 5 minutes and the infesting dose was introduced in the tank. Then the outflow was opened and stayed opened for 30 minutes with a refill every 10 minutes (without opening the tent). After 45 minutes of exposure to the copepodits, the smolts were euthanized by administration of a toxic dose of anaesthetic agent Benzoake, at a concentration of 10 times the normal dose of 30 to 40 mg/l. The dead fish were placed in a plastic bag in which they were rubbed and rinsed with sea water. The skin of the fish was rubbed with a metallic spoon, to remove all the possible copepodits attached on it, as shown in FIG. 7. Each fish was washed thus detaching all of the copepodits and shells from the fish skin. The collected liquid from the washing was filtered to count the parasites. The copepodits were counted on the filter to obtain the number of copepodites on the outer body of the fish. The gills were then dissected to count the number of copepodits on the gills. The first phase of the test compared the number of copepodits on the body and on the gills, between replicas of the test. The purpose of this phase was to validate the test and measure its standard deviation. The second phase of the test compared the number of copepodits (abbreviated cops in the Tables below) on the body and on the gills, between treated smolts and reference smolts, as a control, which were just bathed in seawater plus ethyl alcohol for the five solutions. The same test as in Example 4 was repeated using palmitoleic acid. […] The same experiment was undertaken as described in Example 4.

In assay [2] the test system is Lepeophtheirus salmonis copepodids. Description: Infestation test with isomer in Atlantic salmon (Example 7). The assay is classed as in vivo. The procedure:
The aim of this example was to test the efficacy of an isomer of Sea Lice Copepodids Attachment Inhibiting Semiochemical (SCAIS) as an inhibitor of the infestation behavior of Lepoephtheirus salmonis copepodids in Atlantic salmon (Salmon salar). The test was realized using 4 rounds of 4 fish, eight of which were treated with trans-9-hexadecenoic acid and the other eight used as a control. For each round 4 fish were tested; i.e., 2 treated fish and 2 controls. To be included in the study the smolts had to have a body weight between 70 g and 150 g and the copepodits had to be able to swim actively. If the smolts had disease, loss of scales, fin damage, cataracts and/or swam abnormally they were not used in the study. If the copepodits were immobile after stimulation, they were rejected from the study. For each round 4 fish are caught and introduced into four 2-liter flat beakers supplied with 1.75 liters of seawater. The treated fish had 6 ppm of trans-9-hexadecenoic acid placed in their seawater, while in the control only seawater was used. 0.52 ml of the treatment or control were directly injected into 1.75 liters of seawater. The 4 fish were bathed in this solution for 10 minutes. The fish were then transferred to another 3.5 liter beaker supplied with 3.5 liters of seawater treated either with 3 ppm of trans-9-hexadecenoic acid or a control of simply seawater. 0.52 ml of the treatment of control were directly injected into 3.5 liters of seawater. The flat beakers were equipped with a valve such that 0.875 liters were emptied from the flat beaker. When the fish were introduced into the beakers, the valves were turned on. Ten minutes after the valves were turned on, the beakers were supplied with either 0.875 liters of the treatment of trans-9-hexadecenoic acid or 0.875 liters of the control of seawater. Ten minutes thereafter (20 minutes after the introduction of the fish into the beakers), the valves were turned off and 60 copepodits per fish were injected into each flat beaker. Five minutes later (25 minutes after introduction of the fish into the beakers), the valves were turned on. Ten minutes later (35 minutes after introduction of the fish into the beakers) each beaker was supplied with either 0.875 liters of trans-9-hexadecenoic acid or 0.875 liters of the control of seawater. Ten minutes later (45 minutes after introduction of the fish into the beakers) each beaker was supplied with either 0.875 liters of trans-9-hexadecenoic acid or 0.875 liters of the control of seawater. […] The content of plastic bag was then emptied above a filter and the number of copepodits was then counted on each filter using a magnifying glass. […] Data was analyzed using 9.4 SAS software (2002-2012 by SAS Institute Inc., Cary, N.C., U.S.A.). […]

Setting [3] is: mean of replicas, 6 ppm bath then 3 ppm, 60 copepodits, 45 minutes.
Setting [4] is: 8 treated fish, 6 ppm then 3 ppm.

Each structure is given as a SMILES string. Several values for one entry are separate records, joined by “and”; a condition that tells them apart may be missing. Identical values can stand only once.

Take `CCCCCC/C=C\CCCCCCCC(=O)O` [palmitoleic acid, cis-9-hexadecenoic acid]: the “mean number of copepodits attached” value in assay [1] (treatment group, water dispersible tablets in rearing tank, 60 copepodits per fish, preliminary analysis) is 10.6. Moreover, the “protection in infestation tests (in words)” value in assay [1] (water dispersible tablets, 60 copepodits per fish in closed 3.5 liter tank) is given as “significant protection”. In addition, in the assay with copepodits (Example 6, Treated salmons), the “Number of copepodits attached in the gills, Mean” value is 2.375; the “Number of copepodits attached in the gills, Median” value came out at 2.5; the “Number of copepodits attached to body, Mean” value worked out at 6.25; the “Number of copepodits attached to body, Median” value is recorded as 6. Further, the “reduction in number of copepodits attached on the body of the salmon (in words)” value with copepodits (Example 6, vs control salmons and control cods) is reported as “highly significant reduction”. The “effect on attachment of copepodits on smolts (in words)” value in the assay with copepodits (Examples 4 and 5, vs reference smolts in seawater plus ethyl alcohol) was “important reduction of the infestation”. In addition, in the assay with copepodits (setting [3]), the “Cop on body, mean” value worked out at 8.0 and the “Cop on gills, mean” value is 2.8. The Cop on body with copepodits (single replica (smolt), 6 ppm bath 10 minutes then 3 ppm, 60 copepodits, 45 minutes) was 6 and 11 and 7 and 8.
Take `CCCCCC/C=C/CCCCCCCC(=O)O` [SCAIS^iso, trans-9-hexadecenoic acid]: in assay [2] (setting [4]), the “Nb copepodits, Mean” value was determined as 10 and the “Nb copepodits, Median” value is listed as 9. In assay [2] (single fish, 6 ppm bath 10 minutes then 3 ppm, 60 copepodits per fish), this compound showed a Number of copepodits of 8. In assay [2] (vs seawater control), the “effect on number of copepodits attached in Atlantic salmons (in words)” value was “significant effect on the number of copepodits attached”.

For the origin of these results see patent US11020364B2, “Palmitoleic acid for use in inhibiting the attachment of sea lice to fish” (INSTITUT DE RECHERCHE EN SEMIOCHIMIE ET ETHOLOGIE APPLIQUEE, priority 2014, dated 2021).
